Assay results reported in patent US5605700A (priority 1992, dated 1997).
“Also recorded” adds a separate entry of the source.

What was measured:
[1] = cited from earlier work; for concentration: following large oral doses, read-out: plasma concentration
[2] = Tissue distribution of toremifene and metabolites after 5 days IP vs. topical toremifene (HPLC), mice with MDA A-1 tumors; conditions: for concentration at 2 h: mouse
Protocol: Sixteen female athymic nude mice were injected with a 20-gauge needle subcutaneously with 5×10^6 MDA A-1 cells in the left scapular area. The tumors were allowed to grow for three weeks prior to treatment.
Each of the three mice were injected IP using an 18 gauge needle with 50 μl, delivering 1 mg/day for five days. […] All mice were sacrificed on the fifth day of treatment two hours after the final dose. Blood specimens were collected by capillary pipette after disruption of axillary vessels and placed into heparinized centrifuge tubes. The brains, livers, and uterus were removed surgically and placed in separate tubes.
All blood samples were centrifuged at 1,000 g. The plasma was collected, measured for volume, and placed in clean extraction tubes. All remaining tissue samples were weighed, placed in extraction tubes, and spiked with an internal standard, nafoxidine. The tissues were thoroughly homogenized before the addition of 6 ml extraction fluid. Samples were collected and dried as described below. Before injection onto the HPLC column, each sample was reconstituted with 200 μl methanol. All samples were placed in a quartz cuvette for UV activation. The brain samples required filtration with disposable syringe filters.

[3] = system: MDR-positive cells; conditions: cited from earlier work; for multidrug resistance reversal / chemosensitizing activity: in vitro
[4] = system: estrogen receptors (ER's); conditions: cited from earlier work
[5] = system: estrogen receptor (ER) positive metastatic breast cancer; conditions: cited from earlier work
[6] = system: TD 8; test: Cytostatic effect in experimental cell line TD 8; type: cell-based; conditions: Monodelphis domestica, read-out: IC-50 (50% growth inhibitory concentration)
Text: (§1) The metastatic melanoma cell line, SK-MEL-31, was obtained from the American Type Culture Collection (Rockville, Md.). Two additional human cell lines were derived from portions of surgigally-excised large diameter, superficial spreading melanomas. TD 1.4 was developed from a benign melanoma, whereas TD 7.2 and TD 8 were derived from melanocytic hyperplasias.

[7] = system: MDR MDA A-1 tumors; test: Doxorubicin cytotoxicity enhancement in MDR tumors; clonogenic assay of tumors excised from treated mice; type: in vivo, mouse; conditions: for percent inhibition (clonogenic assay): all three tumors, doxorubicin 1 μg/ml 1 hour, 14 days
Protocol: Drug was applied dropwise to the skin surface directly and around the tumor. Each drop was allowed to evaporate completely. This treatment was administered once a day at the same time for a total of five days. […] Tumors were collected sterilely and processed for clonogenic assay.
The remaining portion was cloned following a 1 hour exposure to doxorubicin 1 μg/ml.

[8] = Tissue distribution of toremifene after single dose (500 μg) IP vs. topical; type: in vivo; conditions: mouse, 0.5 mg
Protocol: Single dose toremifene was administered by IP as described above, or topically with DMSO/ETOH/methylcellulose/water as the diluents. […] Tissue samples were collected as above.
All blood samples were centrifuged at 1,000 g. […] Samples were collected and dried as described below. […] The brain samples required filtration with disposable syringe filters.
DMSO and methylcellulose were used as the diluents. […] This was trend noted in both serum and uterus.

[9] = system: TD 30 A; test: Cytostatic effect in melanoma cell line TD 30 A; type: cell-based; conditions: human cell line TD 30 A; read-out: IC-50 (50% growth inhibitory concentration)
[10] = system: TD 7.2; test: Cytostatic effect in experimental cell line TD 7.2; type: cell-based; conditions: Monodelphis domestica, read-out: IC-50 (50% growth inhibitory concentration)
Text: as §1

[11] = Plasma and tissue concentration of toremifene after topical administration in Monodelphis domestica; type: in vivo
Protocol: The dose was 0.5 mg/d in 3 and 1 mg/d in 3 animals.

[12] = system: spontaneous non-Hodgkin's lymphoma; test: Treatment of spontaneous non-Hodgkin's lymphoma in a baboon; type: in vivo
Protocol: Enlarged lymph nodes with diameters of 1-2 cm were evident in the both groins. Toremifene was dissolved in a. mixture of dimethylsulfoxide, ethanol and methylcellulose. […] On day 25 following start of treatment, topical therapy of right groin was re-instituted while continuing the oral treatment. […] The response to therapy was determined by measuring the sizes of the tumors on two perpendicular dimensions.

[13] = system: MCF-7 cells; test: Prevention of breast cancer (MCF-7) tumor growth by topical administration in the mouse; type: in vivo; conditions: topical 500 μg, 15 days
Protocol: In this study 12 mice were transplanted with MCF-7 cells and were allowed to grow until a small tumor was detected in all mice (<1 mm^3). At that time mice were divided into three groups of four mice each. […] All mice received the same amount of diluent/day (20 μl ). The study was assessed following 15 days of treatment.

[14] = system: TD 1.4; test: Cytostatic effect in experimental cell line TD 1.4; type: cell-based; conditions: Monodelphis domestica, read-out: IC-50 (50% growth inhibitory concentration)
Text: as §1

[15] = system: SD-MEL-31; test: Cytostatic effect in metastatic melanoma cell line SD-MEL-31 (text: SK-MEL-31); type: cell-based; conditions: human cell line SD-MEL-31; read-out: IC-50 (50% growth inhibitory concentration)
Text: as §1

[16] = system: six cell lines of melanocyte origin; test: Cytostatic effect in all six cell lines of melanocyte origin; type: cell-based, human and Monodelphis domestica
Text: as §1

[17] = system: TD 36; test: Cytostatic effect in melanoma cell line TD 36; type: cell-based; conditions: human cell line TD 36; read-out: IC-50 (50% growth inhibitory concentration)
[18] = brain, topical or ocular, 2.5 mg/day
[19] = liver, topical or ocular, 2.5 mg
[20] = serum, topical or ocular, 2.5 mg
[21] = tumor, topical or ocular, 2.5 mg
[22] = uterus, topical or ocular, 2.5 mg
[23] = oral 1 g on days 15, 17, 19 and 23
[24] = right inguinal lymphoma, topical re-instituted while continuing oral

Compound: CNCCOc1ccc(C(=C(CCCl)c2ccccc2)c2ccccc2)cc1 [N-demethyltoremifene, 4-chloro-1,2-diphenyl-[4-[2-(N-methylamino)ethoxy-]phenyl]-1-butene]
- concentration [1]: ~10 µM
- concentration at 2 h ([2]; brain, ip, 1 mg/day): 490 ng/g
- concentration at 2 h [2, 18]: 290 ng/g
- concentration at 2 h ([2]; liver, ip, 1 mg): 940 ng/g
- concentration at 2 h [2, 19]: 920 ng/g
- concentration at 2 h ([2]; serum, ip, 1 mg): 180 ng/mL
- concentration at 2 h [2, 20]: 80 ng/mL
- concentration at 2 h ([2]; tumor, ip, 1 mg): 1270 ng/g
- concentration at 2 h [2, 21]: 8430 ng/g
- concentration at 2 h ([2]; uterus, ip, 1 mg): 1180 ng/g
- concentration at 2 h [2, 22]: 560 ng/g
- multidrug resistance reversal / chemosensitizing activity [3]: have chemosensitizing activity in MDR-positive cells

Compound: CC/C(=C(\c1ccccc1)c1ccc(OCCN(C)C)cc1)c1ccccc1 [tamoxifen]
- estrogen receptor antagonism ([4]; inhibition of estrogen-induced growth): competitive antagonism of tumor estrogen receptors
- fraction of patients with temporary remission ([5]; ER positive metastatic breast cancer): About two-thirds
- endometrial toxicity ([5]; adjuvant therapy, women): increased risk of developing endometrial neoplasms; also recorded: endometrial dysplasia, bleeding, polyp formation and tumors

Compound: CN(C)CCOc1ccc(/C(=C(/CCCl)c2ccccc2)c2ccccc2)cc1 [toremifene]
- IC50 [6]: 7.7 µM
- percent inhibition (clonogenic assay) ([7]; intraperitoneal toremifene): < 30%
- percent inhibition (clonogenic assay) ([7]; topical toremifene): > 30%
- sensitization of tumors to doxorubicin ([7]; topical toremifene, cloning studies (FIG. 2)): appears to sensitize these MDR MDA A-1 tumors to doxorubicin
- concentration at 2 h ([8]; serum, ip, Serum toremifene concentration): 90 ng/mL
- concentration at 2 h ([8]; serum, topical or ocular, Serum toremifene concentration, topical in DMSO): 30 ng/mL
- concentration at 2 h ([8]; serum, topical or ocular, Serum toremifene concentration, topical in methylcellulose (MC)): 20 ng/mL
- concentration at 2 h ([8]; tumor, ip, Tumor toremifene concentration): 2570 ng/g
- concentration at 2 h ([8]; tumor, topical or ocular, Tumor toremifene concentration, topical in DMSO): 4650 ng/g
- concentration at 2 h ([8]; tumor, topical or ocular, Tumor toremifene concentration, topical in methylcellulose (MC)): 1800 ng/g
- concentration at 2 h ([8]; uterus, ip, Uterus toremifene concentration): 23600 ng/g
- concentration at 2 h ([8]; uterus, topical or ocular, Uterus toremifene concentration, topical in DMSO): 920 ng/g
- concentration at 2 h ([8]; uterus, topical or ocular, Uterus toremifene concentration, topical in methylcellulose (MC)): 1100 ng/g
- IC50 [9]: 7.7 µM
- concentration [1]: ~10 µM
- systemic toxicity ([1]; high-dose toremifene (400 mg/day)): generally confined to vertigo, nausea and hot flashes
- IC50 [10]: 9.6 µM
- mean concentration of toremifene in brain ([11]; topical 0.5 mg/day for 5 days): 0.82 ± 0.99 nmol/g
- mean concentration of toremifene in skin ([11]; topical 0.5 mg/day for 5 days): 1296.40 ± 1003.93 nmol/g
- mean concentration of toremifene in brain ([11]; topical 1 mg/day for 5 days): 0.82 ± 0.62 nmol/g
- mean concentration of toremifene in skin ([11]; topical 1 mg/day for 5 days): 1237.35 ± 768.90 nmol/g
- Toremifene concentration in skin as compared to other tissues ([11]; topical 0.5 and 1 mg/day for 5 days): more than 500 fold
- left inguinal lymphoma during oral therapy [12, 23]: stabilized
- right inguinal lymphoma during oral therapy [12, 23]: begun to regrow
- response of lymphoma to topical toremifene ([12]; right inguinal lymphoma, 1.4 g topical over 8 days): clear response
- tumor area after reinstituted topical therapy [12, 24]: 24 mm^2
- tumor area before reinstituted topical therapy [12, 24]: 476 mm^2
- in vivo antitumor response ([12]; topical, regional T-cell lymphoma): can produce an in vivo antitumor response
- effect on tumor growth [13]: prevented tumor growth
- IC50 [14]: 9.3 µM
- concentration that reverses resistance in vitro ([3]; achievable in vivo following oral therapy): 5 µM
- multidrug resistance reversal / chemosensitizing activity [3]: have chemosensitizing activity in MDR-positive cells
- IC50 [15]: 8.1 µM
- IC50 ([16]; Melanocyte, all six cell lines, read-out: range of IC-50s): 5.8 to 9.6 µM
- cytostatic effect ([16]; human and experimental melanomatous cell lines in vitro): clear cytostatic effect
- IC50 [17]: 5.8 µM

Compound: COc1cccc2c1C(=O)c1c(O)c3c(c(O)c1C2=O)C[C@@](O)(C(=O)CO)C[C@@H]3O[C@H]1C[C@H](N)[C@H](O)[C@H](C)O1 [doxorubicin]
- sensitivity of tumor to doxorubicin without toremifene ([7]; mouse not treated with toremifene (FIG. 2)): resistant

Compound: COc1ccc(CCN(C)CCCC(C#N)(c2ccc(OC)c(OC)c2)C(C)C)cc1OC (stereo not drawn) [verapamil]
- multidrug resistance reversal / chemosensitizing activity [3]: shown to reverse multidrug resistance in vitro

Compound: CN(C)CCOc1ccc(/C(=C(/CCCl)c2ccccc2)c2ccc(O)cc2)cc1 [4-hydroxytoremifene, 4-chloro-1-(4-hydroxyphenyl)-2-phenyl-1-[4-[2-(N, N-dimethylamino)ethoyoxy]phenyl]-1-butene]
- antiestrogenic potency among metabolites [4]: most potent antiestrogenic metabolite
- Topical/IP brain concentration ratio ([2]; brain, topical 2.5 mg/day vs IP 1 mg/day, 5 days, listed as Trans 4-hydroxytoremifene): 1.00
- Topical/IP brain concentration ratio ([2]; brain, topical 2.5 mg/day vs IP 1 mg/day, 5 days, listed as trans 4-hydroxytoremifene): identical
- Topical/IP liver concentration ratio ([2]; liver, topical 2.5 mg/day vs IP 1 mg/day, 5 days): 1.63
- concentration at 2 h ([2]; brain, ip, 1 mg/day): 350 ng/g
- concentration at 2 h [2, 18]: 350 ng/g
- concentration at 2 h ([2]; liver, ip, 1 mg): 600 ng/g
- concentration at 2 h [2, 19]: 980 ng/g
- concentration at 2 h ([2]; serum, ip, 1 mg): 160 ng/mL
- concentration at 2 h [2, 20]: 100 ng/mL
- concentration at 2 h ([2]; tumor, ip, 1 mg): 880 ng/g
- concentration at 2 h [2, 21]: 2330 ng/g
- concentration at 2 h ([2]; uterus, ip, 1 mg): 830 ng/g
- concentration at 2 h [2, 22]: 700 ng/g
- Topical/IP serum concentration ratio ([2]; serum, topical 2.5 mg/day vs IP 1 mg/day, 5 days, listed as Trans 4-hydroxytoremifene): 0.63
- Topical/IP serum concentration ratio ([2]; serum, topical 2.5 mg/day vs IP 1 mg/day, 5 days, listed as trans 4-hydroxytoremifene): lower
- Topical/IP tumor concentration ratio ([2]; tumor, topical 2.5 mg/day vs IP 1 mg/day, 5 days, listed as Trans 4-hydroxytoremifene): 2.65
- Topical/IP tumor concentration ratio ([2]; tumor, topical 2.5 mg/day vs IP 1 mg/day, 5 days, listed as trans 4-hydroxytoremifene): greater concentrations
- Topical/IP uterus concentration ratio ([2]; uterus, topical 2.5 mg/day vs IP 1 mg/day, 5 days): 0.84
- effect on tumor growth [13]: prevented tumor growth
- mice that developed a tumor ([13]; four mice per group, all four control mice had tumors >6×8 mms): only one mouse
- multidrug resistance reversal / chemosensitizing activity [3]: have chemosensitizing activity in MDR-positive cells
